Results: PMC10246721, “Cryo-EM structures for the Mycobacterium tuberculosis iron-loaded siderophore transporter IrtAB” (Protein & Cell, 2022)

Assays:
[1] = biological target: T1, IrtABΔSID (SID-truncated IrtAB) (Mycobacterium tuberculosis, UniProt P9WQJ7+P9WQJ9)
T1 construct: gene irtA

[2] = biological target: T1, IrtABΔSID (SID-truncated IrtAB); remark: listed apart in the source

Compound | ATPase activity, phosphate release (MAK-113) [1] | cryo-EM structure [2]
Nc1ncnc2c1ncn2[C@@H]1O[C@H](COP(=O)(O)OP(=O)(O)OP(=O)(O)O)[C@@H](O)[C@H]1O [ATP] | ATPase activity of IrtABΔSID is comparable to that of the wild-type (WT) protein | 
Nc1ncnc2c1ncn2[C@@H]1O[C@H](COP(=O)(O)OP(=O)(O)O)[C@@H](O)[C@H]1O [ADP] |  | we also solved the structure of IrtABΔSID in complex with ADP
